Values of other authors in Sander's compilation of Henry's law constants (doi:10.1063/1.1562632).
Where “and” joins values, the source holds several entries; their conditions need not be identical. Identical values can stand only once.

Test: Henry solubility constant Hcp at 298.15 K (mol/(m3 Pa))
Settings: reference: Li et al. (2003); cited value

SMILES	Henry solubility constant Hcp
Clc1cc(-c2cc(Cl)c(Cl)c(Cl)c2Cl)c(Cl)c(Cl)c1Cl [2,2',3,3',4,4',5,5'-octachlorobiphenyl]	0.15 and 0.23
Clc1cc(Cl)c(-c2ccc(Cl)c(Cl)c2Cl)cc1Cl [2,2',3,4,4',5'-hexachlorobiphenyl]	0.025 and 0.033
Clc1cc(Cl)c(-c2cc(Cl)c(Cl)cc2Cl)cc1Cl [2,2',4,4',5,5'-hexachlorobiphenyl]	0.04 and 0.051
Clc1cc(Cl)c(-c2c(Cl)cc(Cl)cc2Cl)c(Cl)c1 [2,2',4,4',6,6'-hexachlorobiphenyl]	0.013 and 0.011
Clc1ccc(Cl)c(-c2cc(Cl)c(Cl)cc2Cl)c1 [2,2',4,5,5'-pentachlorobiphenyl]	0.032 and 0.041
Clc1ccc(Cl)c(-c2cc(Cl)ccc2Cl)c1 [2,2',5,5'-tetrachlorobiphenyl]	0.035 and 0.04
Clc1ccc(-c2cc(Cl)c(Cl)cc2Cl)cc1Cl [2,3',4,4',5-pentachlorobiphenyl]	0.031 and 0.069
Clc1ccc(-c2ccc(Cl)c(Cl)c2Cl)cc1Cl [2,3,3',4,4'-pentachlorobiphenyl]	0.03 and 0.072
Clc1cc(-c2ccccc2)c(Cl)c(Cl)c1Cl [2,3,4,5-tetrachlorobiphenyl]	0.049 and 0.05
Clc1ccc(-c2cc(Cl)ccc2Cl)cc1 [2,4',5-trichlorobiphenyl]	0.027 and 0.029
Clc1ccc(-c2ccccc2Cl)cc1 [2,4'-dichlorobiphenyl]	0.038 and 0.044
Clc1ccc(-c2ccc(Cl)cc2)cc1 [4,4'-dichlorobiphenyl]	0.07 and 0.075
